Measurements reported in patent publication US8192962B2, “Processes for detecting toxic substances” (Daikin Industries, Ltd., priority 2001, dated 2012).

Tested on: Metabolism protein genes
Assay: DNA chip mRNA expression in yeast, metabolism protein genes (Table 7)
Type: cell-based, Saccharomyces cerevisiae S288C
In short: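 Values are treated/untreated fluorescence ratios from a whole-genome yeast DNA chip hybridized over 12 hours at 65° C with Cy3- or Cy5-labelled cDNA from poly(A) mRNA. Log-phase S288C yeast in YPD at 25° C had received a single toxic chemical for two hours, dosed to slow growth without killing.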

## [Cl][Hg][Cl] [(3), HgCl2]
Yeast gene YAL012W
  The level of expressed mRNA in the presence of chemical substance/The level of expressed mRNA in the absence of chemical substance: 10.4
Yeast gene YAL038W
  The level of expressed mRNA in the presence of chemical substance/The level of expressed mRNA in the absence of chemical substance: 3.0
Yeast gene YBR003W
  level of expressed mRNA in the presence/in the absence of chemical substance: 1.0
Yeast gene YBR011C
  level of expressed mRNA in the presence/in the absence of chemical substance: 2.5
Yeast gene YBR020W
  level of expressed mRNA in the presence/in the absence of chemical substance: 1.9
Yeast gene YBR023C
  The level of expressed mRNA in the presence of chemical substance/The level of expressed mRNA in the absence of chemical substance: 1.3
Yeast gene YBR029C
  The level of expressed mRNA in the presence of chemical substance/The level of expressed mRNA in the absence of chemical substance: 1.8
Yeast gene YBR183W
  The level of expressed mRNA in the presence of chemical substance/The level of expressed mRNA in the absence of chemical substance: 2.0
Yeast gene YBR222C
  The level of expressed mRNA in the presence of chemical substance/The level of expressed mRNA in the absence of chemical substance: 1.3
Yeast gene YBR256C
  The level of expressed mRNA in the presence of chemical substance/The level of expressed mRNA in the absence of chemical substance: 0.6
Yeast gene YCL009C
  The level of expressed mRNA in the presence of chemical substance/The level of expressed mRNA in the absence of chemical substance: 2.0
Yeast gene YCL064C
  The level of expressed mRNA in the presence of chemical substance/The level of expressed mRNA in the absence of chemical substance: 0.8
Yeast gene YCR010C
  level of expressed mRNA in the presence/in the absence of chemical substance: 1.6
Yeast gene YCR034W
  level of expressed mRNA in the presence/in the absence of chemical substance: 2.5
Yeast gene YCR048W
  The level of expressed mRNA in the presence of chemical substance/The level of expressed mRNA in the absence of chemical substance: 1.0
Yeast gene YCR098C
  The level of expressed mRNA in the presence of chemical substance/The level of expressed mRNA in the absence of chemical substance: 1.7
Yeast gene YDR019C
  The level of expressed mRNA in the presence of chemical substance/The level of expressed mRNA in the absence of chemical substance: 1.7
Yeast gene YDR050C
  level of expressed mRNA in the presence/in the absence of chemical substance: 2.3
Yeast gene YDR073W
  level of expressed mRNA in the presence/in the absence of chemical substance: 0.7
Yeast gene YDR123C
  level of expressed mRNA in the presence/in the absence of chemical substance: 0.4
Yeast gene YDR178W
  level of expressed mRNA in the presence/in the absence of chemical substance: 3.4
Yeast gene YDR277C
  level of expressed mRNA in the presence/in the absence of chemical substance: 1.0
Yeast gene YDR284C
  level of expressed mRNA in the presence/in the absence of chemical substance: 3.0
Yeast gene YDR345C
  level of expressed mRNA in the presence/in the absence of chemical substance: 5.6
Yeast gene YDR380W
  The level of expressed mRNA in the presence of chemical substance/The level of expressed mRNA in the absence of chemical substance: 0.8
Yeast gene YDR400W
  level of expressed mRNA in the presence/in the absence of chemical substance: 2.2
Yeast gene YDR408C
  level of expressed mRNA in the presence/in the absence of chemical substance: 1.4
Yeast gene YDR483W
  level of expressed mRNA in the presence/in the absence of chemical substance: 1.3
Yeast gene YDR497C
  The level of expressed mRNA in the presence of chemical substance/The level of expressed mRNA in the absence of chemical substance: 0.6
Yeast gene YDR502C
  The level of expressed mRNA in the presence of chemical substance/The level of expressed mRNA in the absence of chemical substance: 2.4
Yeast gene YDR516C
  The level of expressed mRNA in the presence of chemical substance/The level of expressed mRNA in the absence of chemical substance: 7.8
Yeast gene YEL063C
  level of expressed mRNA in the presence/in the absence of chemical substance: 2.4
Yeast gene YER015W
  level of expressed mRNA in the presence/in the absence of chemical substance: 1.1
Yeast gene YER026C
  The level of expressed mRNA in the presence of chemical substance/The level of expressed mRNA in the absence of chemical substance: 3.3
Yeast gene YER053C
  The level of expressed mRNA in the presence of chemical substance/The level of expressed mRNA in the absence of chemical substance: 1.9
Yeast gene YER069W
  The level of expressed mRNA in the presence of chemical substance/The level of expressed mRNA in the absence of chemical substance: 3.3
Yeast gene YER081W
  level of expressed mRNA in the presence/in the absence of chemical substance: 2.7
Yeast gene YER096W
  The level of expressed mRNA in the presence of chemical substance/The level of expressed mRNA in the absence of chemical substance: 2.0
Yeast gene YER120W
  level of expressed mRNA in the presence/in the absence of chemical substance: 2.5
Yeast gene YER178W
  The level of expressed mRNA in the presence of chemical substance/The level of expressed mRNA in the absence of chemical substance: 3.6
Yeast gene YFL011W
  level of expressed mRNA in the presence/in the absence of chemical substance: 3.7
Yeast gene YFL014W
  The level of expressed mRNA in the presence of chemical substance/The level of expressed mRNA in the absence of chemical substance: 5.7
Yeast gene YFL030W
  The level of expressed mRNA in the presence of chemical substance/The level of expressed mRNA in the absence of chemical substance: 3.1
Yeast gene YFL031W
  The level of expressed mRNA in the presence of chemical substance/The level of expressed mRNA in the absence of chemical substance: 2.1
Yeast gene YFL056C
  The level of expressed mRNA in the presence of chemical substance/The level of expressed mRNA in the absence of chemical substance: 2.3
Yeast gene YFL057C
  The level of expressed mRNA in the presence of chemical substance/The level of expressed mRNA in the absence of chemical substance: 1.5
Yeast gene YFR047C
  The level of expressed mRNA in the presence of chemical substance/The level of expressed mRNA in the absence of chemical substance: 2.7
Yeast gene YGL012W
  level of expressed mRNA in the presence/in the absence of chemical substance: 3.0
Yeast gene YGL022W
  The level of expressed mRNA in the presence of chemical substance/The level of expressed mRNA in the absence of chemical substance: 1.4
Yeast gene YGL115W
  level of expressed mRNA in the presence/in the absence of chemical substance: 1.2
Yeast gene YGL126W
  The level of expressed mRNA in the presence of chemical substance/The level of expressed mRNA in the absence of chemical substance: 1.4
Yeast gene YGL205W
  level of expressed mRNA in the presence/in the absence of chemical substance: 0.7
Yeast gene YGL209W
  The level of expressed mRNA in the presence of chemical substance/The level of expressed mRNA in the absence of chemical substance: 1.1
Yeast gene YGL248W
  The level of expressed mRNA in the presence of chemical substance/The level of expressed mRNA in the absence of chemical substance: 0.9
Yeast gene YGR037C
  The level of expressed mRNA in the presence of chemical substance/The level of expressed mRNA in the absence of chemical substance: 2.2
Yeast gene YGR055W
  The level of expressed mRNA in the presence of chemical substance/The level of expressed mRNA in the absence of chemical substance: 12.0
Yeast gene YGR096W
  level of expressed mRNA in the presence/in the absence of chemical substance: 1.1
Yeast gene YGR191W
  level of expressed mRNA in the presence/in the absence of chemical substance: 1.6
Yeast gene YGR194C
  The level of expressed mRNA in the presence of chemical substance/The level of expressed mRNA in the absence of chemical substance: 1.3
Yeast gene YGR204W
  level of expressed mRNA in the presence/in the absence of chemical substance: 2.7
Yeast gene YGR256W
  The level of expressed mRNA in the presence of chemical substance/The level of expressed mRNA in the absence of chemical substance: 2.3
Yeast gene YGR282C
  The level of expressed mRNA in the presence of chemical substance/The level of expressed mRNA in the absence of chemical substance: 4.6
Yeast gene YGR288W
  level of expressed mRNA in the presence/in the absence of chemical substance: 1.0
Yeast gene YHR025W
  level of expressed mRNA in the presence/in the absence of chemical substance: 2.4
Yeast gene YHR111W
  The level of expressed mRNA in the presence of chemical substance/The level of expressed mRNA in the absence of chemical substance: 0.8
Yeast gene YHR123W
  level of expressed mRNA in the presence/in the absence of chemical substance: 1.8
Yeast gene YHR137W
  The level of expressed mRNA in the presence of chemical substance/The level of expressed mRNA in the absence of chemical substance: 2.4
Yeast gene YHR174W
  The level of expressed mRNA in the presence of chemical substance/The level of expressed mRNA in the absence of chemical substance: 3.3
Yeast gene YHR176W
  The level of expressed mRNA in the presence of chemical substance/The level of expressed mRNA in the absence of chemical substance: 1.1
Yeast gene YHR210C
  level of expressed mRNA in the presence/in the absence of chemical substance: 0.6
Yeast gene YIL006W
  level of expressed mRNA in the presence/in the absence of chemical substance: 1.4
Yeast gene YIL045W
  The level of expressed mRNA in the presence of chemical substance/The level of expressed mRNA in the absence of chemical substance: 1.9
Yeast gene YIL107C
  The level of expressed mRNA in the presence of chemical substance/The level of expressed mRNA in the absence of chemical substance: 1.1
Yeast gene YIL154C
  The level of expressed mRNA in the presence of chemical substance/The level of expressed mRNA in the absence of chemical substance: 1.9
Yeast gene YIL155C
  The level of expressed mRNA in the presence of chemical substance/The level of expressed mRNA in the absence of chemical substance: 1.4
Yeast gene YIR034C
  The level of expressed mRNA in the presence of chemical substance/The level of expressed mRNA in the absence of chemical substance: 2.5
Yeast gene YIR036C
  The level of expressed mRNA in the presence of chemical substance/The level of expressed mRNA in the absence of chemical substance: 2.6
Yeast gene YJL031C
  The level of expressed mRNA in the presence of chemical substance/The level of expressed mRNA in the absence of chemical substance: 0.5
Yeast gene YJL068C
  The level of expressed mRNA in the presence of chemical substance/The level of expressed mRNA in the absence of chemical substance: 3.4
Yeast gene YJL088W
  The level of expressed mRNA in the presence of chemical substance/The level of expressed mRNA in the absence of chemical substance: 2.2
Yeast gene YJL099W
  The level of expressed mRNA in the presence of chemical substance/The level of expressed mRNA in the absence of chemical substance: 0.3
Yeast gene YJL121C
  level of expressed mRNA in the presence/in the absence of chemical substance: 1.9
Yeast gene YJL167W
  level of expressed mRNA in the presence/in the absence of chemical substance: 1.4
Yeast gene YJL172W
  The level of expressed mRNA in the presence of chemical substance/The level of expressed mRNA in the absence of chemical substance: 1.8
Yeast gene YJL216C
  level of expressed mRNA in the presence/in the absence of chemical substance: 2.2
Yeast gene YJL219W
  The level of expressed mRNA in the presence of chemical substance/The level of expressed mRNA in the absence of chemical substance: 3.1
Yeast gene YJR077C
  level of expressed mRNA in the presence/in the absence of chemical substance: 2.0
Yeast gene YJR137C
  The level of expressed mRNA in the presence of chemical substance/The level of expressed mRNA in the absence of chemical substance: 4.6
Yeast gene YJR143C
  level of expressed mRNA in the presence/in the absence of chemical substance: 2.1
Yeast gene YJR148W
  The level of expressed mRNA in the presence of chemical substance/The level of expressed mRNA in the absence of chemical substance: 2.0
